Test results taken from PubChem BioAssay AID624404 (Broad Institute, 2012).
Results filed as inconclusive are left out.

Test system: D54 LucT luciferase reporter counterscreen, luminescence, 24 h
Experiment: reporter signal increase, D54 LucT cells – cell-based, luminescence, cherry pick, counter-screen for N-linked glycosylation inhibitor project, dose response (AID 624404)

Compound	AC35 [nM]
Cc1cc(=O)oc2cc(NC(=O)c3cccc(S(C)(=O)=O)c3)ccc12	526
O=C1OCC2=C1C(c1ccc3c(c1)OCO3)c1cc3c(cc1O2)OCO3 (stereo not drawn)	352
O=C(NCCCN1CCOCC1)c1cc(-c2ccccc2)on1	3040
COc1cccc(C2=NOC(C(=O)NCc3ccccc3)C2)c1 (stereo not drawn)	102
O=C(c1ncn(Cc2ccccc2)c1C(=O)N1CCN(c2ccccc2)CC1)N1CCN(c2ccccc2)CC1	1230
Nc1cc2c(cc1Br)-c1c(C(=O)O)cccc1C2O (stereo not drawn)	2680
COc1cc(-c2nc(-c3ccccc3)c(-c3cccs3)[nH]2)cc(OC)c1OC	7050
COC(=O)c1c(NC(=O)c2cccnc2Cl)sc(C(=O)N(C)C)c1C	1380
COc1cc(/C=C/C(=O)OCC(=O)NCc2ccc(F)cc2)ccc1O	88.1
COc1ccc(C2NC(=S)NC3=C2CCCC3=C2SCCS2)cc1 (stereo not drawn)	186
O=C1[C@H]2[C@@H](c3ccc(F)cc3)N3C(=O)N(c4cccc(Cl)c4)C(=O)[C@@]3(Cc3ccccc3)[C@H]2C(=O)N1C1CCCCC1	1060
COc1ccc(C(=O)N2CCN(S(=O)(=O)c3ccc(C)cc3C)CC2)cc1S(=O)(=O)N1CCOCC1	4790
CCOc1ccc(/C=C/C(=O)c2ccccc2)cc1OC	1260
CC(=O)c1c(C)[nH]c(C(=O)Nc2nccs2)c1C	379
C=CCOc1ccc(C(=O)Nc2ccccc2C(=O)NCc2cccnc2)cc1	109
Cc1[nH]c2ccccc2c1/C=N/NC(=O)c1cc(-c2ccncc2)nc2ccccc12	2060
O=S(=O)(Cc1ccc(Cl)cc1Cl)c1ccc(Cl)cc1	1490
COc1cc2c(cc1OC)CN(c1ccc(C(F)(F)F)cn1)CC2	2500
COc1ccccc1N1CCN(c2ccc3c(c2)S(=O)(=O)c2cccc(C(=O)NCC4CC4)c2C3=O)CC1	1190
CCc1ccc(OCC(=O)Nc2ccc(-c3cc4ccccc4oc3=O)c(OC)c2)cc1	734
C[C@@]12C(=O)Nc3cc(Cl)ccc3C(=O)N1[C@H]1c3cc(Br)ccc3OC[C@@H]1[C@@H]2c1ccccc1	2550
COc1ccccc1NC(=O)c1ccc(-c2ccc(Br)cc2)o1	466

Compound	AC35 [nM]
NC(=O)c1cccc(-c2ccnc3c2CC(C(=O)NCc2ccccc2)O3)c1 (stereo not drawn)	283
CN(C)CCNc1cccc2sc3ccc(O)cc3c(=O)c12	1980
N#Cc1c(N)n(CCc2ccc(F)cc2)c2nc3ccccc3nc12	1880
CNC(=O)c1cccc(NC(=O)c2ccccc2OCc2ccccc2)c1	454
Cc1ccc(-c2nn3c(C)nnc3c3ccccc23)cc1S(=O)(=O)N(C)CCO	599
COc1ccccc1-c1c(C#N)c(N)nc2c1CCc1ccccc1-2	1110
COc1ccc(CCCC(=O)NCc2ccccc2)cc1C	2780
Cc1ccc(S(=O)(=O)C(NC(=O)c2ccccc2)=C(Cl)Cl)cc1	4390
COCCNC(=S)N1CCc2cc(OC)c(OC)cc2C1c1cccs1 (stereo not drawn)	352
OCCCNc1c2ccccc2nc2ccccc12	4900
CC(=O)Nc1cccc(NC(=O)c2ccccc2OCc2ccccc2)c1	3830
CC(C)c1c(C(=O)Nc2ccccc2)c(-c2ccccc2)c(-c2ccc(F)cc2)n1CC[C@@H](O)C[C@@H](O)CC(=O)O	1260
CC[C@H](C)C(=O)O[C@H]1CCC=C2C=C[C@H](C)[C@H](CC[C@@H]3C[C@@H](O)CC(=O)O3)[C@H]21	1260
Cc1ccc(NCCN(C)C)c2c(=O)c3cc(O)ccc3sc12	5710
NC(=O)CC(NC(=O)Cc1ccc(Br)cc1)c1ccc(NC2CCN(Cc3ccccc3)CC2)c([N+](=O)[O-])c1 (stereo not drawn)	983
COc1cc(NC(C(=O)Nc2cccc(C(C)=O)c2)c2ccccc2)cc(OC)c1OC (stereo not drawn)	5.56
O=C1[C@H]2[C@@H](c3ccc(F)cc3)N3C(=O)N(c4cccc(Br)c4)C(=O)[C@@]3(Cc3ccccc3)[C@H]2C(=O)N1C1CCCCC1	480
COc1cc(C(=O)Nc2ccc3c(c2)nc(C)n3C)cc(OC)c1OC	1130
CCOC(=O)c1[nH]c(C)c(C(=O)Nc2cc(Cl)ccc2C)c1C	2240
COc1cccc(C2=NOC(C(=O)NCc3ccc(F)cc3)C2)c1 (stereo not drawn)	4170
CCN(CCCNC(=O)CCCOc1cc(=O)n(C)c2ccccc12)Cc1ccccc1	510
Cc1ccc2nc(-c3ccc(SCC(=O)Nc4nnc(C)s4)nc3)[nH]c2c1	22.4

Compound	AC35 [nM]
COc1cc(F)ccc1-c1csc(C(NC(C)=O)c2cccc(F)c2)n1 (stereo not drawn)	93.1
COc1ccc(C2=NOC(C(=O)NCc3cccs3)C2)cc1 (stereo not drawn)	1140
Cn1c(=O)c2cc(NC(=O)CCc3ccccc3)ccc2n1-c1ccccc1F	2980
CCOc1ccc(C(=O)n2cc(C(=O)OC)c3ccccc32)cc1	6030
CCn1c(=O)c2cc(C(=O)NCCCOC)sc2c2ccccc21	177
COc1ccccc1CCNCc1ccc(OC)c(OCc2ccccc2)c1	1170
CC(=O)Nc1sc(C)c(C)c1C(=O)OCC(=O)Nc1ccccc1	1920
NC(=O)CC(NC(=O)Cc1ccc(Br)cc1)c1ccc(NC2CCCC2)c([N+](=O)[O-])c1 (stereo not drawn)	2870
COc1ccc(/C=C2\SC(=O)N(CCNC(=O)C3=COCCO3)C2=O)cc1	854
COc1cccc(C(N)c2nc(-c3csc4ccccc34)cs2)c1 (stereo not drawn)	4880
Cc1cccc(C(=O)Oc2ccccc2/C=N/NC(=O)c2ccc(NC(=O)C(C)(C)C)cc2)c1	2690
CC(C)(C)S(=O)(=O)N1C[C@H]2CC/C=C\C/C(c3ccccc3)=C\2[C@@H]1CCO	536
O=C(Nc1c(Cl)ccc2nsnc12)c1ccc([N+](=O)[O-])o1	778
Cc1nnc2c3ccccc3c(-c3ccccc3)nn12	221
CCc1nn2c(NCCCO)cc(C)nc2c1-c1ccc(F)cc1	184
COc1ccc(N/C=C/C(=O)c2cc(OC)c(OC)c(OC)c2)cc1	263
COc1ccccc1/C=N/NC(=O)c1cc2c(OC)c(OC)ccc2[nH]1	987
CCCOc1ccc2ccccc2c1/C=N/n1c(C)nnc1-n1nc(C)cc1C	18.4
O=C(c1ccc(Cl)c(S(=O)(=O)N2CCCCC2)c1)N1CCN(Cc2ccccc2)CC1	1920
CCOc1ccc2cc(/C=C/C(=O)c3ccco3)c(Cl)nc2c1	4140
COc1cc(C(=O)OCCCN2CCCN(CCCOC(=O)c3cc(OC)c(OC)c(OC)c3)CC2)cc(OC)c1OC	2190
CC(=O)Nc1ccc(/C=C/C(=O)c2ccc3c(c2)OCCO3)cc1	2880

Compound	AC35 [nM]
O=C1NC[C@H](Cc2ccccc2)N(C[C@H]2CCCN2C[C@H](Cc2ccccc2)N2C[C@H](Cc3ccc(O)cc3)N(CCc3ccccc3)C(=O)C2=O)C1=O	3770
Cc1ccc2[nH]c(=O)c3cc(C(=O)NC(C)C)sc3c2c1	2390
c1ccc2c(-c3nc4ccccc4[nH]3)cccc2c1	911
Nc1nc(-c2ccccc2)cc(-c2ccccc2O)n1	1760
COc1cc(OC)c(N2CC(C(=O)Nc3cc(Cl)ccc3N3CCOCC3)CC2=O)cc1Cl (stereo not drawn)	1260
NNC(=O)c1ccc(OCC2CC(c3ccc(Cl)cc3)=NO2)cc1 (stereo not drawn)	157
Oc1ccc(Nc2nc(N3CCCC3)c3ccccc3n2)cc1	150
Cc1cc(C(=O)N/N=C/c2c3ccccc3cc3ccccc23)n[nH]1	643
CCn1c2ccccc2c2cc(/C=N/NC(=O)c3ccc(O)cc3)ccc21	4490
CCOc1ccc2[nH]c3c(N4CCc5ccccc5C4)ncnc3c2c1	4260
CC(=O)N1CCc2c(sc(NC(=O)c3ccc4c(c3)OCCO4)c2C#N)C1	1520
CC(C)n1cc(NC(=O)c2cc(-c3ccccc3)on2)cn1	568
Cc1ccc(N=Nc2c(N)nn(-c3ccccc3)c2N)cc1	56.1
CC(=O)c1ccc(OCC(O)CN2CCN(CCN3C(=O)c4cccc5cccc(c45)C3=O)CC2)cc1 (stereo not drawn)	4420
COc1cc(NC(=O)CN2c3cccc4cccc(c34)S2(=O)=O)cc(OC)c1OC	7530
Cc1nc(Nc2nc(-c3ccccc3)cc(=O)[nH]2)nc2ccccc12	4910
COc1cccc(N2CCN(C(=O)c3[nH]c(C)c(C(C)=O)c3C)CC2)c1	4890
Cc1ccc(C)c(NC(=S)NC(NC(=O)Cc2cccc3ccccc23)C(Cl)(Cl)Cl)c1 (stereo not drawn)	3550
O=C(COc1ccccc1CNCc1ccccc1)Nc1ccccc1	890
Cc1ccc(-c2cc(C(=O)N3CC(C)OC(C)C3)c3ccccc3n2)o1 (stereo not drawn)	2910
CC(C)c1ccc(OCc2ccc(C(=O)N3CCCC3)o2)cc1	850
COc1ccc(S(=O)(=O)N2CCCCC2)cc1NC(=O)c1[nH]c(C)c(C(C)=O)c1C	621

Compound	AC35 [nM]
Cc1ccc(SCC(=O)Nc2ccc(-c3nc4ccccc4[nH]3)cc2)cc1	337
Cc1noc(C)c1COc1ccc(C(=O)NNC(=O)c2ccccc2)cc1	271
COC(=O)c1cn(C(=O)c2cccc3ccccc23)c2ccccc12	284
CCCC(=O)Nc1nc2ccc(NC(=O)c3c(F)c(F)c(OC)c(F)c3F)cc2s1	2270
Cc1nn(-c2ccccc2)c(Cl)c1/C=N/Nc1nc2ccccc2[nH]1	23.5
CC1CN(C(=O)c2ccc(COc3ccc(C(C)C)cc3)o2)CC(C)O1 (stereo not drawn)	< 1.2
Cn1c(=O)n(C)c2cc(NS(=O)(=O)c3ccc(F)cc3)ccc21	1240
COc1ccc(Cl)cc1NC(=O)Nc1ccc(C(=O)N2CCCC2)cc1	2950
CCOc1ccc(Nc2nc(N(C)c3ccccc3)nc(N)c2[N+](=O)[O-])cc1	128
COc1ccc(NC(=O)C2Cc3c(-c4cccc(NC(C)=O)c4)ccnc3O2)cc1OC (stereo not drawn)	1830
CC(=O)c1sc(Nc2cccc3ccccc23)nc1C	4070
COc1cccc(C(=O)Nc2ncc3c(n2)CC(c2ccc(OC)cc2OC)CC3=O)c1 (stereo not drawn)	7610
Cc1ccc(C(=O)N/C(=C\c2cccs2)C(=O)NCCc2c[nH]c3ccccc23)cc1	1090
C[C@@]12C(=O)Nc3cc(F)ccc3C(=O)N1[C@H]1c3ccccc3OC[C@@H]1[C@@H]2c1ccccc1	1510
Oc1[nH]c(N=C2N=c3ccccc3=N2)c2ccccc12	17.2
CC(C)C1N=C(c2ccc3c(c2)OCO3)CC(c2ccccc2O)N1 (stereo not drawn)	3510
Cc1ccc(NC(=O)c2ccc(Cl)cc2[N+](=O)[O-])nc1	2420
CCC(C)[C@H](NC(=O)N1CC(=O)Nc2ccccc21)C(=O)Nc1ccccc1C (stereo partly drawn)	2750
COc1cc2c(cc1OC)C(c1cccs1)N(C(=S)NC(C)C)CC2 (stereo not drawn)	85.1
COc1ccccc1-c1csc(C(NC(C)=O)c2ccc(F)c(F)c2)n1 (stereo not drawn)	420
